Measurements taken from ChEMBL document CHEMBL1201862, “PubChem BioAssay data set” (2004).
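1) Cells in 96-well plates. 2) Compound, 48 h, 5 concentrations. 3) Linear interpolation between surrounding doses. 4) Unreached endpoint = highest concentration. GI50 marks 50% less growth.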 Activity calls are given as the source filed them. Rule as the data show it: active = GI50 up to about 1.1 µM and inactive = higher.

Key:
Experiment in all cases: NCI anticancer screen, dose series, 48 h
CCRF-CEM = system: CCRF-CEM
K562 = system: K562
SF-295 = system: SF-295
HCT-15 = system: HCT-15
MOLT-4 = system: MOLT-4
OVCAR-3 = system: OVCAR-3
HCT-116 = system: HCT-116
CAKI-1 = system: CAKI-1
OVCAR-4 = system: OVCAR-4
XF498 = system: XF498
KM12 = system: KM12
NCI-H226 = system: NCI-H226
U-251 = system: U-251
HT-29 = system: HT-29
OVCAR-5 = system: OVCAR-5
LXFL 529 = system: LXFL 529
TK-10 = system: TK-10
SK-MEL-5 = system: SK-MEL-5
KM-20L2 = system: KM-20L2
M19-MEL = system: M19-MEL
SR = system: SR
OVCAR-8 = system: OVCAR-8
SF-268 = system: SF-268
M14 = system: M14
NCI-H460 = system: NCI-H460
NCI-H522 = system: NCI-H522
RXF 393 = system: RXF 393
COLO 205 = system: COLO 205
RPMI-8226 = system: RPMI-8226
DLD-1 = system: DLD-1
SNB-19 = system: SNB-19
SNB-78 = system: SNB-78
DMS-273 = system: DMS-273
HOP-92 = system: HOP-92
HOP-18 = system: HOP-18
IGROV-1 = system: IGROV-1
SK-MEL-28 = system: SK-MEL-28
HOP-62 = system: HOP-62
ACHN = system: ACHN
A549 = system: A549
Malme-3M = system: Malme-3M
HCC 2998 = system: HCC 2998
HL-60 = system: HL-60
UACC-257 = system: UACC-257
LOX IMVI = system: LOX IMVI
786-0 = system: 786-0
UACC-62 = system: UACC-62
SW-620 = system: SW-620
NCI-H23 = system: NCI-H23
SK-MEL-2 = system: SK-MEL-2
SNB-75 = system: SNB-75
A498 = system: A498
EKVX = system: EKVX
UO-31 = system: UO-31
NCI/ADR-RES = system: NCI/ADR-RES
SF-539 = system: SF-539
DMS-114 = system: DMS-114
SK-OV-3 = system: SK-OV-3
SN12C = system: SN12C
MCF7 = system: MCF7

With CN(NC1OC(CO)C(O)C(O)C1O)c1ccccc1 (stereo not drawn) the GI50 (CCRF-CEM) was > 100 µM (inactive), the GI50 (K562) was > 100 µM (inactive) and the GI50 (SF-295) was > 100 µM (inactive). The GI50 (HCT-15) was over 100 µM, the GI50 (MOLT-4) was > 100 µM (inactive) and the GI50 (OVCAR-3) was > 100 µM (inactive). The GI50 (HCT-116) was > 100 µM (inactive), the GI50 (CAKI-1) was > 100 µM (inactive) and the GI50 (OVCAR-4) was > 100 µM (inactive). The GI50 (XF498) was 16.4 µM (inactive), the GI50 (KM12) was > 100 µM (inactive) and the GI50 (NCI-H226) was > 100 µM (inactive). The GI50 (U-251) was > 100 µM (inactive), the GI50 (HT-29) was > 100 µM (inactive) and the GI50 (OVCAR-5) was > 100 µM (inactive). For the same molecule, the GI50 (LXFL 529) was > 100 µM (inactive), the GI50 (TK-10) was > 100 µM (inactive) and the GI50 (SK-MEL-5) was > 100 µM (inactive). For the same molecule, the GI50 (KM-20L2) was > 100 µM (inactive), the GI50 (M19-MEL) was > 100 µM (inactive) and the GI50 (SR) was > 100 µM (inactive). The GI50 (OVCAR-8) was > 100 µM (inactive), the GI50 (SF-268) was > 100 µM (inactive) and the GI50 (M14) was > 100 µM (inactive). The GI50 (NCI-H460) was > 100 µM (inactive), the GI50 (NCI-H522) was 94.4 µM (inactive) and the GI50 (RXF 393) was > 100 µM (inactive). For the same molecule, the GI50 (COLO 205) was > 100 µM (inactive), the GI50 (RPMI-8226) was > 100 µM (inactive) and the GI50 (DLD-1) was > 100 µM (inactive). For the same molecule, the GI50 (SNB-19) was > 100 µM (inactive), the GI50 (SNB-78) was > 100 µM (inactive) and the GI50 (DMS-273) was > 100 µM (inactive). For the same molecule, the GI50 (HOP-92) was > 100 µM (inactive), the GI50 (HOP-18) was > 100 µM (inactive) and the GI50 (IGROV-1) was > 100 µM (inactive). The GI50 (SK-MEL-28) was > 100 µM (inactive), the GI50 (HOP-62) was > 100 µM (inactive) and the GI50 (ACHN) was > 100 µM (inactive). The GI50 (A549) was > 100 µM (inactive), the GI50 (Malme-3M) was > 100 µM (inactive) and the GI50 (HCC 2998) was 43.4 µM (inactive). For the same molecule, the GI50 (HL-60) was > 100 µM (inactive), the GI50 (UACC-257) was > 100 µM (inactive) and the GI50 (LOX IMVI) was > 100 µM (inactive). The GI50 (786-0) was > 100 µM (inactive), the GI50 (UACC-62) was > 100 µM (inactive) and the GI50 (SW-620) was > 100 µM (inactive). The GI50 (NCI-H23) was > 100 µM (inactive).

COc1cccc2c1C(=O)c1c(O)c3c(c(O)c1C2=O)CC(O)(C(C)=O)CC3O (stereo not drawn) was tested, and the GI50 (CCRF-CEM) was 1.88 µM (inactive), the GI50 (K562) was 4.34 µM (inactive) and the GI50 (SF-295) was 5.73 µM (inactive). For the same molecule, the GI50 (HCT-15) was 9.23 µM, the GI50 (MOLT-4) was 1.98 µM (inactive) and the GI50 (OVCAR-3) was 7.8 µM (inactive). The GI50 (HCT-116) was 2.41 µM (inactive), the GI50 (CAKI-1) was 4.61 µM (inactive) and the GI50 (OVCAR-4) was 6.34 µM (inactive). The GI50 (XF498) was 0.537 µM (active), the GI50 (KM12) was 6.17 µM (inactive) and the GI50 (NCI-H226) was 5.56 µM (inactive). The GI50 (U-251) was 4.03 µM (inactive), the GI50 (HT-29) was 6.04 µM (inactive) and the GI50 (OVCAR-5) was 10.5 µM (inactive). The GI50 (SK-MEL-2) was 8.07 µM (inactive), the GI50 (SNB-75) was 9.68 µM (inactive) and the GI50 (A498) was 1 µM (active). For the same molecule, the GI50 (SK-MEL-5) was 2.16 µM (inactive), the GI50 (KM-20L2) was 6.85 µM (inactive) and the GI50 (M19-MEL) was 5.79 µM (inactive). The GI50 (OVCAR-8) was 2.84 µM (inactive), the GI50 (SF-268) was 4.23 µM (inactive) and the GI50 (EKVX) was 4.9 µM (inactive). For the same molecule, the GI50 (UO-31) was 9.57 µM (inactive), the GI50 (NCI/ADR-RES) was 5.68 µM (inactive) and the GI50 (NCI-H460) was 1.56 µM (inactive). The GI50 (NCI-H522) was 1.03 µM (active), the GI50 (RXF 393) was 5.98 µM (inactive) and the GI50 (SF-539) was 4.74 µM (inactive). The GI50 (COLO 205) was 3.02 µM (inactive), the GI50 (RPMI-8226) was 2.18 µM (inactive) and the GI50 (DLD-1) was 6.85 µM (inactive). The GI50 (SNB-19) was 6.03 µM (inactive), the GI50 (DMS-114) was 6.97 µM (inactive) and the GI50 (SNB-78) was 9.18 µM (inactive). The GI50 (DMS-273) was 2.3 µM (inactive), the GI50 (HOP-92) was 7.11 µM (inactive) and the GI50 (HOP-18) was 22.6 µM (inactive). The GI50 (SK-OV-3) was 11.5 µM (inactive), the GI50 (IGROV-1) was 3.44 µM (inactive) and the GI50 (SK-MEL-28) was 12.7 µM (inactive). For the same molecule, the GI50 (HOP-62) was 2.14 µM (inactive), the GI50 (A549) was 6.55 µM (inactive) and the GI50 (SN12C) was 3.8 µM (inactive). For the same molecule, the GI50 (Malme-3M) was 4.56 µM (inactive), the GI50 (HCC 2998) was 7.24 µM (inactive) and the GI50 (HL-60) was 3.6 µM (inactive). The GI50 (UACC-257) was 10.6 µM (inactive), the GI50 (LOX IMVI) was 1.63 µM (inactive) and the GI50 (MCF7) was 1.01 µM (active). For the same molecule, the GI50 (UACC-62) was 5.58 µM (inactive), the GI50 (SW-620) was 2.33 µM (inactive) and the GI50 (NCI-H23) was 4.88 µM (inactive).
